Results taken from publication PMC6539525, “Design, Synthesis, and Mechanism of Dihydroartemisinin–Coumarin Hybrids as Potential Anti-Neuroinflammatory Agents” (Molecules, 2019).
Where two headings read alike, the source gives them in different places.

What was measured:
[1] = system: IL-6 release of LPS-induced N9 cells; assay: IL-6 release of LPS-induced N9 cells (cytokine kit); type: cell-based, murine; conditions: compound 1 μM, LPS 1 μg/mL, 48 h
Protocol: (§1) N9 cells, which were in the logarithmic phase, were incubated for 24 h by adherent culture. Subsequently, the medium was changed to new one without serum. The cells were treated with different concentration of tested compounds. After specific time in the LPS condition, the supernatants were collected and analyzed.
(§2) The secreted level of TNF-α and IL-6 was measured using mouse Th1/Th2/Th17 Cytokine Kit, purchased from BD Pharningen. The data was analyzed by FCAP Array v3.0. IL-2, IL-4, IL-10, IL-17A, and IFN-γ were not detected in the experiment.

[2] = system: TNF-α release of LPS-induced N9 cells; assay: TNF-α release of LPS-induced N9 cells (cytokine kit); type: cell-based, murine; conditions: compound 1 μM, LPS 1 μg/mL, 48 h
Protocol: as §1, §2

[3] = NO capture analysis with sodium nitroprusside (Griess); conditions: 0.01-10 μM compound, 0.5 mM SNP solution, 1 h, room temperature
Protocol: Sodium nitroprusside (SNP) is a NO donor. In this experiment, the reason of the DCH reducing NO level was preliminary explored. […] That means the main reason of the NO level reduction is due to species-specific effect.
SNP was dissolved in PBS to prepare the 100 mM stock solution. In this experiment, SNP solution of […] was added to 975 μL PBS solution which included different concentration of tested compounds. After 60 min under r.t. condition, the concentration of NO2^− was tested using Griess assay.
6l (0.01 μM, 0.1 μM, 1 μM, and 10 μM) or 5n (0.01 μM, 0.1 μM, 1 μM, and 10 μM) was added to a concentration of 0.5 mM SNP solution. […] Data were shown as mean ± SD. *** p < 0.001 compared with control group.

[4] = MTT cytotoxicity in N9 cells; type: cell-based, murine; conditions: mouse, N9 microglial cells, cytotoxic activity
Procedure, shortened: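 N9 microglial cells seeded at 1.5–3 × 10^4 cells/mL, grown 24 h, then exposed to compounds at 6.25–100 μM in triplicate for 96 h. Viability by MTT (4 h), formazan dissolved in DMSO, absorbance at 570 nm; MTT-IC20 derived.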

A549 cells = assay: MTT cytotoxicity in A549 cells; type: cell-based; conditions: Homo sapiens
Procedure, shortened: (§3)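 Standard MTT assay: cells seeded 24 h, treated with compounds at 6.25–100 μM in triplicate, then grown for 96 h total. Run under normoxia (air throughout) or hypoxia (95% N2 for 24 h, then 72 h normoxia). MTT added for 4 h, formazan dissolved in DMSO, absorbance read at 570 nm.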

HT-29 cells = assay: MTT cytotoxicity in HT-29 cells; type: cell-based, Human; conditions: for IC50: Homo sapiens, MTT
MDA-MB-231 cells = assay: MTT cytotoxicity in MDA-MB-231 cells; type: cell-based; conditions: Homo sapiens
Procedure, shortened: as §3

HCT-116 cells = assay: MTT cytotoxicity in HCT-116 cells; type: cell-based; conditions: Homo sapiens
Procedure, shortened: as §3

[5] = system: NO release of LPS-induced microglial N9 cells; assay: Inhibition of NO release in LPS-induced N9 cells (Griess); type: cell-based, murine; conditions: Mus musculus, 1 μg/mL LPS for 48 h, NO level in medium
Procedure, shortened: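 Log-phase N9 microglia were grown adherent for 24 h, switched to serum-free medium, then given test compounds under LPS stimulation. Nitrite in supernatant was quantified by Griess reaction at 540 nm; MTT-IC20 was determined to exclude cytotoxic effects.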

`Cc1ccc2c(OCc3cn(CCO[C@H]4O[C@@H]5O[C@@]6(C)CC[C@H]7[C@H](C)CC[C@@H]([C@H]4C)[C@@]57OO6)nn3)cc(=O)oc2c1C` [5n] gave an inhibition at 1 µM ([1]; Mus musculus) of 43.1%, an IL-6 [1] of 656.75 ± 79.49 pg/mL and an inhibition at 1 µM ([2]; Mus musculus) of 22%. The TNF-α [2] was 3508.08 ± 368.72 pg/mL, the “NO radical scavenging activity” value [3] was “had NO radical scavenging activity” and the IC20 [4] was 2.44 µM. The IC50 (A549 cells; A549, hypoxia 24 h then normoxia 72 h, read-out: IC50 A549 Hypoxia) was 2.44 µM, the IC50 (A549 cells; A549, normoxia 96 h, read-out: IC50 A549 Normoxia) was 2.11 µM and the “cell viability of HT-29 cells” value (HT-29 cells; 6.25-100 μM for 48 h, MTT staining) was “decreased in a dose-dependent manner”. The IC50 (HT-29 cells; HT-29, hypoxia 24 h then normoxia 72 h, read-out: IC50 HT-29 Hypoxia) was 8.9 µM, the IC50 (HT-29 cells; HT-29, normoxia 96 h, read-out: IC50 HT-29 Normoxia) was 10.2 µM and the IC50 (MDA-MB-231 cells; MDA-MB-231, hypoxia 24 h then normoxia 72 h, read-out: IC50 MDA-MB-231 Hypoxia) was 11.7 µM. The IC50 (MDA-MB-231 cells; MDA-MB-231, normoxia 96 h, read-out: IC50 MDA-MB-231 Normoxia) was 11 µM, the IC50 (HCT-116 cells; HCT-116, hypoxia 24 h then normoxia 72 h, read-out: IC50 HCT-116 Hypoxia) was 32.9 µM and the IC50 (HCT-116 cells; HCT-116, normoxia 96 h, read-out: IC50 HCT-116 Normoxia) was 25.6 µM. For the same molecule, the melting point was 91 to 93 °C and the IC50 [5] was 0.22 µM.
